Laboratory results: the NIST ThermoML archive (doi:10.1021/je034223r)

Columns and labels:
[1] = refractive index (Na D-line) (dimensionless); xn = mol fraction of the nth substance listed; details: 298.15 K, 101.3 kPa, Liquid, refractometer
[2] = heat capacity at constant pressure per volume; xn = mol fraction of the nth substance listed; details: 298.15 K, 101.3 kPa, Liquid, Flow calorimetry
[3] = excess molar enthalpy (molar enthalpy of mixing); xn = mol fraction of the nth substance listed; details: 298.15 K, 101.3 kPa, Liquid, Flow calorimetry
[4] = xn = mol fraction of the nth substance listed; details: 298.15 K, 101.3 kPa, Liquid, vibrating tube

O=C1CCCC1 [cyclopentanone] + C1COCO1
Details	excess molar enthalpy [kcal/mol]	heat capacity [J/K/m3]	mass density [kg/m3]	refractive index
[1], x2 = 0.0815	–	–	–	1.43248
[1], x2 = 0.1569	–	–	–	1.43014
[1], x2 = 0.2322	–	–	–	1.42774
[1], x2 = 0.3155	–	–	–	1.425
[1], x2 = 0.3526	–	–	–	1.42375
[1], x2 = 0.3965	–	–	–	1.42224
[1], x2 = 0.4345	–	–	–	1.42091
[1], x2 = 0.4742	–	–	–	1.41949
[1], x2 = 0.5109	–	–	–	1.41816
[1], x2 = 0.5558	–	–	–	1.4165
[1], x2 = 0.5858	–	–	–	1.41537
[1], x2 = 0.6334	–	–	–	1.41355
[1], x2 = 0.6716	–	–	–	1.41206
[1], x2 = 0.7127	–	–	–	1.41042
[1], x2 = 0.7862	–	–	–	1.4074
[1], x2 = 0.8695	–	–	–	1.40385
[1], x2 = 0.9509	–	–	–	1.40023
[2], x2 = 0.0645	–	1713700	–	–
[2], x2 = 0.1429	–	1716000	–	–
[2], x2 = 0.3008	–	1720700	–	–
[2], x2 = 0.3817	–	1723100	–	–
[2], x2 = 0.4603	–	1725400	–	–
[2], x2 = 0.5381	–	1727400	–	–
[2], x2 = 0.6191	–	1729600	–	–
[2], x2 = 0.6973	–	1731600	–	–
[2], x2 = 0.8468	–	1734900	–	–
[2], x2 = 0.928	–	1736500	–	–
[3], x2 = 0.1	-0.000954	–	–	–
[3], x2 = 0.2	-0.00204	–	–	–
[3], x2 = 0.3	-0.0033	–	–	–
[3], x2 = 0.4	-0.00437	–	–	–
[3], x2 = 0.5	-0.00521	–	–	–
[3], x2 = 0.6	-0.00564	–	–	–
[3], x2 = 0.7	-0.00548	–	–	–
[3], x2 = 0.8	-0.00463	–	–	–
[3], x2 = 0.9	-0.00288	–	–	–
[4], x2 = 0.0808	–	–	951.41	–
[4], x2 = 0.1586	–	–	958.77	–
[4], x2 = 0.2251	–	–	965.28	–
[4], x2 = 0.3113	–	–	974.02	–
[4], x2 = 0.3507	–	–	978.14	–
[4], x2 = 0.4024	–	–	983.65	–
[4], x2 = 0.4295	–	–	986.6	–
[4], x2 = 0.4749	–	–	991.62	–
[4], x2 = 0.509	–	–	995.47	–
[4], x2 = 0.5451	–	–	999.61	–
[4], x2 = 0.5465	–	–	999.76	–
[4], x2 = 0.5891	–	–	1004.75	–
[4], x2 = 0.6248	–	–	1009	–
[4], x2 = 0.6813	–	–	1015.89	–
[4], x2 = 0.7075	–	–	1019.14	–
[4], x2 = 0.7891	–	–	1029.57	–
[4], x2 = 0.8629	–	–	1039.38	–

CCCC(C)=O [pentan-2-one] + C1COCO1
Details	excess molar enthalpy [kcal/mol]	heat capacity [J/K/m3]	mass density [kg/m3]	refractive index
[1], x2 = 0.0759	–	–	–	1.3885
[1], x2 = 0.1654	–	–	–	1.38924
[1], x2 = 0.2333	–	–	–	1.38982
[1], x2 = 0.3134	–	–	–	1.39054
[1], x2 = 0.3532	–	–	–	1.39091
[1], x2 = 0.3984	–	–	–	1.39134
[1], x2 = 0.431	–	–	–	1.39166
[1], x2 = 0.4741	–	–	–	1.39208
[1], x2 = 0.5178	–	–	–	1.39252
[1], x2 = 0.5578	–	–	–	1.39293
[1], x2 = 0.5924	–	–	–	1.39329
[1], x2 = 0.6321	–	–	–	1.39372
[1], x2 = 0.6761	–	–	–	1.39419
[1], x2 = 0.7128	–	–	–	1.3946
[1], x2 = 0.7928	–	–	–	1.3955
[1], x2 = 0.9448	–	–	–	1.3973
[2], x2 = 0.0638	–	1709600	–	–
[2], x2 = 0.1404	–	1711100	–	–
[2], x2 = 0.2192	–	1712900	–	–
[2], x2 = 0.2981	–	1714700	–	–
[2], x2 = 0.3819	–	1716700	–	–
[2], x2 = 0.4598	–	1719100	–	–
[2], x2 = 0.5386	–	1721800	–	–
[2], x2 = 0.6171	–	1724700	–	–
[2], x2 = 0.6915	–	1727300	–	–
[2], x2 = 0.7737	–	1730500	–	–
[2], x2 = 0.8546	–	1733700	–	–
[2], x2 = 0.9324	–	1736700	–	–
[3], x2 = 0.1	0.0128	–	–	–
[3], x2 = 0.15	0.0196	–	–	–
[3], x2 = 0.2	0.0266	–	–	–
[3], x2 = 0.25	0.0329	–	–	–
[3], x2 = 0.3	0.0375	–	–	–
[3], x2 = 0.35	0.0424	–	–	–
[3], x2 = 0.4	0.0462	–	–	–
[3], x2 = 0.45	0.0492	–	–	–
[3], x2 = 0.5	0.0504	–	–	–
[3], x2 = 0.55	0.0506	–	–	–
[3], x2 = 0.6	0.0498	–	–	–
[3], x2 = 0.65	0.0479	–	–	–
[3], x2 = 0.7	0.0449	–	–	–
[3], x2 = 0.75	0.0407	–	–	–
[3], x2 = 0.8	0.0353	–	–	–
[3], x2 = 0.85	0.0286	–	–	–
[3], x2 = 0.9	0.0205	–	–	–
[4], x2 = 0.0882	–	–	816.74	–
[4], x2 = 0.1647	–	–	830.91	–
[4], x2 = 0.2307	–	–	843.79	–
[4], x2 = 0.3499	–	–	868.72	–
[4], x2 = 0.3798	–	–	875.35	–
[4], x2 = 0.4314	–	–	887.14	–
[4], x2 = 0.4631	–	–	894.63	–
[4], x2 = 0.5169	–	–	907.82	–
[4], x2 = 0.5183	–	–	908.18	–
[4], x2 = 0.5529	–	–	916.98	–
[4], x2 = 0.5897	–	–	926.62	–
[4], x2 = 0.6338	–	–	938.59	–
[4], x2 = 0.6667	–	–	947.78	–
[4], x2 = 0.7131	–	–	961.29	–
[4], x2 = 0.7174	–	–	962.55	–
[4], x2 = 0.7909	–	–	985.17	–
[4], x2 = 0.8704	–	–	1011.41	–
[4], x2 = 0.9486	–	–	1039.18	–
